Measured values taken from ChEMBL document CHEMBL2040771, “Discovery of a potent inhibitor of anaplastic lymphoma kinase with in vivo antitumor activity” (ACS Med Chem Lett, 2010).
The source made the active and inactive calls. No cut-off for these calls is given here.

Legend:
Mus musculus = experiment: Toxicity in SCID mouse xenografted with human SUP-M2 cells assessed as weight loss at 30 mg/kg, po BID for 12 days; format: organism-based; design: dose 30 mg/kg, route oral; conditions: in vivo, 288 h
[1] = target: Protein-tyrosine kinase 6 (Homo sapiens) (UniProt Q13882); experiment: Inhibition of BRK at 0.1 uM
[2] = Drug uptake in tumor lysates in SCID mouse xenografted with ALK-positive human SUP-M2 cells at 55 mg/kg, po bid for 12 days; format: ADME, organism-based, Neoplasm; design: dose 55 mg/kg, route oral; conditions: read-out: Drug uptake
[3] = target: NUAK family SNF1-like kinase 1 (Homo sapiens) (UniProt O60285); experiment: Inhibition of ARK5 at 1 uM
[4] = target: Leukocyte tyrosine kinase receptor (Homo sapiens) (UniProt P29376); experiment: Inhibition of LTK at 0.1 uM
[5] = Volume of distribution in Sprague-Dawley rat at 1 mg/kg, iv; format: ADME, organism-based; design: dose 1 mg/kg, route intravenous; conditions: in vivo
KARPAS-299 = experiment: Growth inhibition of ALK-positive human KARPAS299 cells by MTS assay; format: functional, cell-based
[6] = target: Serine/threonine-protein kinase 3 (Homo sapiens) (UniProt Q13188); experiment: Inhibition of MST2 at 0.1 uM
[7] = target: Dual specificity protein kinase TTK (Homo sapiens) (UniProt P33981); experiment: Inhibition of TTK at 0.1 uM
[8] = target: Platelet-derived growth factor receptor beta (Homo sapiens) (UniProt P09619); experiment: Inhibition of PDGFRB at 0.1 uM
[9] = Plasma concentration in SCID mouse xenografted with ALK-positive human SUP-M2 cells at 30 mg/kg, po bid for 12 days; format: ADME, organism-based; design: dose 30 mg/kg, route oral
[10] = Plasma concentration in SCID mouse xenografted with ALK-positive human SUP-M2 cells at 55 mg/kg, po bid for 12 days; format: ADME, organism-based; design: dose 55 mg/kg, route oral
SUP-M2 = experiment: Antitumor activity against ALK-positive human SUP-M2 cells xenografted in SCID mouse assessed as complete tumor regression at 55 mg/kg, po bid after 12 days; format: functional, organism-based; design: dose 55 mg/kg
[11] = system: Receptor-type tyrosine-protein kinase FLT3 (Homo sapiens), P36888 [D835Y]; experiment: Inhibition of FLT3 D835Y mutant at 0.1 uM
[12] = AUC in SCID mouse at 10 mg/kg, po; format: ADME, organism-based; design: dose 10 mg/kg, route oral; conditions: plasma
[13] = target: Dual specificity protein kinase TTK (Homo sapiens) (UniProt P33981); experiment: Inhibition of TTK at 1 uM
[14] = target: Tyrosine-protein kinase Fer (Homo sapiens) (UniProt P16591); experiment: Inhibition of FER at 0.1 uM
[15] = target: Serine/threonine-protein kinase 32B (Homo sapiens) (UniProt Q9NY57); experiment: Inhibition of YANK2 at 0.1 uM
[16] = Tmax in Sprague-Dawley rat at 5 mg/kg, po; format: ADME, organism-based; design: dose 5 mg/kg, route oral; conditions: in vivo
[17] = target: Proto-oncogene tyrosine-protein kinase ROS (Homo sapiens) (UniProt P08922); experiment: Inhibition of ROS at 0.1 uM
[18] = target: Focal adhesion kinase 1 (Homo sapiens) (UniProt Q05397); experiment: Inhibition of FAK at 0.1 uM
[19] = Plasma protein binding in mouse; format: ADME, cell-free; conditions: read-out: PPB (converted)
[20] = system: Receptor-type tyrosine-protein kinase FLT3 (Homo sapiens), P36888 [D835H]; experiment: Inhibition of FLT3 D835H mutant at 1 uM
K562 [21] = experiment: Growth inhibition of ALK-negative human K562 cells up to 1 uM by MTS assay; format: functional, cell-based
[22] = system: Epidermal growth factor receptor (Homo sapiens), P00533 [L861Q]; experiment: Inhibition of EGFR L861Q mutant at 0.1 uM; format: protein assay
K562 [23] = experiment: Induction apoptosis in ALK-negative human K562 cells assessed as activation of caspase 3/7 by fluorometric assay; format: functional, cell-based

Chain of Dual specificity protein kinase TTK (Homo sapiens) (P33981 whole entry): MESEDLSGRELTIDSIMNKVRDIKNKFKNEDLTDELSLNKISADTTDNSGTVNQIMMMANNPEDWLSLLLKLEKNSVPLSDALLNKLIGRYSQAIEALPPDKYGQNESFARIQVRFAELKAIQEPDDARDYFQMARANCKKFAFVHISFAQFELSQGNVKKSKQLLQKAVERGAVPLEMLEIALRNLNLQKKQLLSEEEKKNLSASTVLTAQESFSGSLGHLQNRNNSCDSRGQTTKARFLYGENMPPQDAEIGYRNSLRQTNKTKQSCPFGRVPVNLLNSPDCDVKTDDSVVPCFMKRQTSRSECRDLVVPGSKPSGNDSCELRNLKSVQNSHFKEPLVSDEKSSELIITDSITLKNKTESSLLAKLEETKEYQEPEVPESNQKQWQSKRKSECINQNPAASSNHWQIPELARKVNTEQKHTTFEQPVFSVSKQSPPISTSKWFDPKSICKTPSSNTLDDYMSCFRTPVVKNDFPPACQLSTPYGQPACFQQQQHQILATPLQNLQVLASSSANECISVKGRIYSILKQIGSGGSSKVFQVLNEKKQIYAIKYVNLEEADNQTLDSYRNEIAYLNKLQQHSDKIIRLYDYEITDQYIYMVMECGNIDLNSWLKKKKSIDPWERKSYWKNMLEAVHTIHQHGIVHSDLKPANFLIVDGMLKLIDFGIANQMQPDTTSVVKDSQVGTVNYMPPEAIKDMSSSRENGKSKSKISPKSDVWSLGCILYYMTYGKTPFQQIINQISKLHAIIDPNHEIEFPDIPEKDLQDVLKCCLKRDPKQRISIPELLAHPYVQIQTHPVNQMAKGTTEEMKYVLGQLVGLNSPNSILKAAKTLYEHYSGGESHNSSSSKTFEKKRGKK
Chain of Serine/threonine-protein kinase 3 (Homo sapiens) (Q13188 whole entry): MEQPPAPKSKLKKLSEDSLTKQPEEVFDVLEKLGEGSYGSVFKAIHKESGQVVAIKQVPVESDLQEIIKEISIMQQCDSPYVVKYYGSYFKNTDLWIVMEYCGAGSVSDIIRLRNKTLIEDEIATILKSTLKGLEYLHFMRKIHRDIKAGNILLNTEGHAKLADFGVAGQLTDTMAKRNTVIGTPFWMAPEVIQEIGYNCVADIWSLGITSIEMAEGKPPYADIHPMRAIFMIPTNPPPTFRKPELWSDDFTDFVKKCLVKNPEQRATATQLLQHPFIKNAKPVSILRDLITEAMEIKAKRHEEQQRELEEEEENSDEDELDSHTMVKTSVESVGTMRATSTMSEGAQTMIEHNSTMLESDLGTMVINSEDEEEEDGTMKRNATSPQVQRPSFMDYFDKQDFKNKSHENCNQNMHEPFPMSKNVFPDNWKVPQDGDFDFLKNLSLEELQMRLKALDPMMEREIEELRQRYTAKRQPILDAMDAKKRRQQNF
Chain of Platelet-derived growth factor receptor beta (Homo sapiens) (P09619 whole entry): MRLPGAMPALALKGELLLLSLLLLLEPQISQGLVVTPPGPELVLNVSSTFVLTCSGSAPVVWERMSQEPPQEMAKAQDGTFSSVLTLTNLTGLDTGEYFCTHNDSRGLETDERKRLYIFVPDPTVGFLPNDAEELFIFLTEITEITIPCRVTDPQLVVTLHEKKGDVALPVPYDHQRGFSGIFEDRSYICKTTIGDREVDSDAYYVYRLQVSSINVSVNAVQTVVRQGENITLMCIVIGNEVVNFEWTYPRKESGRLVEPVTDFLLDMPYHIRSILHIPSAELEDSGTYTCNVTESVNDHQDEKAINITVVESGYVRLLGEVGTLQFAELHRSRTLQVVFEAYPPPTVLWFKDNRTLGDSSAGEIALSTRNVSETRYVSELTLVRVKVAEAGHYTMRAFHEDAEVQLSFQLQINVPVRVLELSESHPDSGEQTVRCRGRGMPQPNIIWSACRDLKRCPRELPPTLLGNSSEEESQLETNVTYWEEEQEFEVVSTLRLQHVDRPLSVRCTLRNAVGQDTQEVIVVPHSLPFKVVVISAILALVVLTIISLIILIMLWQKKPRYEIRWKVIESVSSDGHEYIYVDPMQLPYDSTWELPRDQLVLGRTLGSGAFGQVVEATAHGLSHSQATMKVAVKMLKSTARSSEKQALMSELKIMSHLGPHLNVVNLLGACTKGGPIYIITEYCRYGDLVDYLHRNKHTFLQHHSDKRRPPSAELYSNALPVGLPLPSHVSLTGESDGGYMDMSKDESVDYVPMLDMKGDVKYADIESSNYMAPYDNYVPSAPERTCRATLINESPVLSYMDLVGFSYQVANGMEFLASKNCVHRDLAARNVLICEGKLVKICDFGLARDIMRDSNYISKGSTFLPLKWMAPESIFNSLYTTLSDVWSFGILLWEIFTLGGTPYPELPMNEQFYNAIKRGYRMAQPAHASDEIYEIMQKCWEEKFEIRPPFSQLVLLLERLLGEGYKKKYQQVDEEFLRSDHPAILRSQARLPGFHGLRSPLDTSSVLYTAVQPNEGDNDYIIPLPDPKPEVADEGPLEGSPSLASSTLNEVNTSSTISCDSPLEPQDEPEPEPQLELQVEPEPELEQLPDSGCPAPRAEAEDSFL
Chain of Focal adhesion kinase 1 (Homo sapiens) (Q05397 2-1052 limits assumed): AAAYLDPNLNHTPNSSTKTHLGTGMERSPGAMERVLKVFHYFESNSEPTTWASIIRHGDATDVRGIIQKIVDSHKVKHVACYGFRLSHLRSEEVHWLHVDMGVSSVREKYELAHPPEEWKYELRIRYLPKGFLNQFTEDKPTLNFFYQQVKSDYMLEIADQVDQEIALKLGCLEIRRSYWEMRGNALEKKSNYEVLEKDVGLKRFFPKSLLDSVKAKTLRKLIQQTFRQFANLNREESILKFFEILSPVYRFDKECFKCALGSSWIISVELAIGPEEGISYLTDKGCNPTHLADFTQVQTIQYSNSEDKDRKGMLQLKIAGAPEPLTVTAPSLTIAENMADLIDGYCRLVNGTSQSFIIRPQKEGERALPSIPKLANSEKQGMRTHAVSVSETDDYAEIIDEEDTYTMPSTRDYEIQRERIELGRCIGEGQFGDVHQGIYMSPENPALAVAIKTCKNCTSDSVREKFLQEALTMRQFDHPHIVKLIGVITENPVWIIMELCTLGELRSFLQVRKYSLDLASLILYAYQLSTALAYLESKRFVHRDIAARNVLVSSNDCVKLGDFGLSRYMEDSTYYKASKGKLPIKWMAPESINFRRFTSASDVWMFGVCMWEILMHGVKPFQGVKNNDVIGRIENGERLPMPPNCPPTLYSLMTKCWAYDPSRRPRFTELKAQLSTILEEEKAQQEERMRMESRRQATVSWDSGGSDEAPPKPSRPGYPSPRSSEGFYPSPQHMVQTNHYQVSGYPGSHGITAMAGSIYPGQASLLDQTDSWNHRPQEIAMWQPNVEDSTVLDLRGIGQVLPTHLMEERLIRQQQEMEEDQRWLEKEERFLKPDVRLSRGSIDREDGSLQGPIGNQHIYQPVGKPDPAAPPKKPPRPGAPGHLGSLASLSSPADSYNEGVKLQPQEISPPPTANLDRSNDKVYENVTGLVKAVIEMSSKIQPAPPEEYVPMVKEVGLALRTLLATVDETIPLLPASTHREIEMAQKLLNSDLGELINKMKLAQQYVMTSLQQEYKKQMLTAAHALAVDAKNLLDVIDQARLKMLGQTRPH
Chain of Serine/threonine-protein kinase 32B (Homo sapiens) (Q9NY57 whole entry): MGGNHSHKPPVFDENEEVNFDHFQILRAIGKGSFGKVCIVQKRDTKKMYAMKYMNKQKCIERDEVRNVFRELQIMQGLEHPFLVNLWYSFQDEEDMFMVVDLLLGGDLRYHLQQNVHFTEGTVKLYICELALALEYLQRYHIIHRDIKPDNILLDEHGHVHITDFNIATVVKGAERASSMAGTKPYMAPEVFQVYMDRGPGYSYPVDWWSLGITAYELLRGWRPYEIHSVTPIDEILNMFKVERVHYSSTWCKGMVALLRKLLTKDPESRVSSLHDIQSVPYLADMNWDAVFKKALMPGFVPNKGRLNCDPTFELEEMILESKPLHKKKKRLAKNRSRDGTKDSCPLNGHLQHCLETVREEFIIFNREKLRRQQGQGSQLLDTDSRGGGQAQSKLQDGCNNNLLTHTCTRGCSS
Chain of NUAK family SNF1-like kinase 1 (Homo sapiens) (O60285 whole entry): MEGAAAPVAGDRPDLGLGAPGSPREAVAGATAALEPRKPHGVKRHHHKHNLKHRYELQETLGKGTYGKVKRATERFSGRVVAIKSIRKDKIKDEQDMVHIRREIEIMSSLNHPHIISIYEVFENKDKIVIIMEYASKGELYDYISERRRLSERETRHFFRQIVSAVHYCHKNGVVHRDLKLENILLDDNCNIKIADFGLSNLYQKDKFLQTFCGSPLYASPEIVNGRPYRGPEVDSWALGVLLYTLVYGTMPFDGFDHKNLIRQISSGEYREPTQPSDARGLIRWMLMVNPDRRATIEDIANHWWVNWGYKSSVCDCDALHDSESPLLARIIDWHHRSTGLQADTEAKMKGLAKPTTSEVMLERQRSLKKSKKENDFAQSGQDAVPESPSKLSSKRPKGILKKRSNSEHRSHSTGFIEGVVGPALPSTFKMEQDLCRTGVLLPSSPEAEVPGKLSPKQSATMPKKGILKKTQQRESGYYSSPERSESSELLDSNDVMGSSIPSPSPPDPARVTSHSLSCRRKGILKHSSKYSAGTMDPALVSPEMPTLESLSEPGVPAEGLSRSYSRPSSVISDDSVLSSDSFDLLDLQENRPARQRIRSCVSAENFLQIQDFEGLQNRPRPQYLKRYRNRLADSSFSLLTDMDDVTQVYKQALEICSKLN
Chain of Protein-tyrosine kinase 6 (Homo sapiens) (Q13882 whole entry, looked up): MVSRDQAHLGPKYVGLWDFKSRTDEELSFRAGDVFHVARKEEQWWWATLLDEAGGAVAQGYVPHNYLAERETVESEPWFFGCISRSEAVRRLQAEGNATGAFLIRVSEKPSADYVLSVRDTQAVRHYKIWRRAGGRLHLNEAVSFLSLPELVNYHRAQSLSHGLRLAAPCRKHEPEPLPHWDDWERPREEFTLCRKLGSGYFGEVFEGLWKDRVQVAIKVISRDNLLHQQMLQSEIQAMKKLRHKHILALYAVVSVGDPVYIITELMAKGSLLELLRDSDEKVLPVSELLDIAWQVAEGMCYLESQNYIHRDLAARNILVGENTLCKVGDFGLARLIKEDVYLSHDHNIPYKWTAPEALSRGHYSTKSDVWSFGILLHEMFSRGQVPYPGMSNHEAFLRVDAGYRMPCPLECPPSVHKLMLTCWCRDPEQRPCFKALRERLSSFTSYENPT

inhibition [1]: 88%
concentration at 288 h [2]: 1180 ng/g
inhibition [3]: 92%
inhibition [4]: 96%
Vd [5]: 0.9 L/kg
EC50 (KARPAS-299): 200 nM
inhibition [6]: < 50%
inhibition [7]: 96%
inhibition [8]: 66%
concentration at 288 h [9]: 1500 ng/mL
concentration at 288 h [10]: 3700 ng/mL
inhibition [11]: 90%
AUC [12]: 1410 ng·h/mL
inhibition [13]: 96%
inhibition [14]: 93%
inhibition [15]: < 50%
Tmax [16]: 48 min
inhibition [17]: 77%
inhibition [18]: 72%
fraction unbound [19]: 0.08
inhibition [20]: 95%
inhibition [22]: < 50%
SMILES: CCN1C(=O)CCCc2c1ccc(Nc1ncc(Cl)c(N[C@H]3[C@@H](C(N)=O)[C@@H]4C=C[C@H]3C4)n1)c2OC
Activity (Mus musculus): Non-toxic
Activity (SUP-M2): Active
growth inhibition (GI) (K562 [21]): inactive
Activity (K562 [23]): inactive
